Measured values from article PMC9687610, “Adenosine-Mimicking Derivatives of 3-Aminopyrazine-2-Carboxamide: Towards Inhibitors of Prolyl-tRNA Synthetase with Antimycobacterial Activity” (Biomolecules, 2022).

Experiments:
[1] = tested on: Lichtheimia corymbifera CCM 8077; test: Antifungal microdilution broth (EUCAST), LC; type: cell-based; details: read after 24 h; read-out: LC MIC
[2] = tested on: Trichophyton interdigitale CCM 8377 (ATCC 9533); test: Antifungal microdilution broth (EUCAST), TI; type: cell-based; details: read after 72 h
[3] = tested on: Aspergillus flavus CCM 8363; test: Antifungal microdilution broth (EUCAST), AFla; type: cell-based; details: read after 24 h; read-out: AFla MIC
[4] = tested on: Aspergillus fumigatus ATCC 204305; test: Antifungal microdilution broth (EUCAST), AF; type: cell-based; details: read after 24 h; read-out: AF MIC
[5] = tested on: Candida albicans CCM 8320 (ATCC 24433); test: Antifungal microdilution broth (EUCAST), CA; type: cell-based; details: read after 24 h; read-out: CA MIC
[6] = tested on: Candida krusei CCM 8271 (ATCC 6258); test: Antifungal microdilution broth (EUCAST), CK; type: cell-based; details: read after 24 h; read-out: CK MIC
[7] = tested on: Enterococcus faecalis CCM 4224 (ATCC 29212); test: Antibacterial microdilution broth (EUCAST), EF; type: cell-based; details: read after 24 h; read-out: EF MIC
[8] = tested on: Staphylococcus aureus subsp. aureus CCM 4223 (ATCC 29213); test: Antibacterial microdilution broth (EUCAST), SA; type: cell-based; details: read after 24 h; read-out: SA MIC
[9] = tested on: Mycobacterium tuberculosis H37Ra ITM-M006710 (ATCC 9431); test: Microplate Alamar Blue Assay (MABA), Mtb H37Ra; type: cell-based; details: MABA, Middlebrook 7H9 broth pH 6.6, resazurin after 120 h
[10] = tested on: Mycobacterium smegmatis DSM 43465 (ATCC 607); test: Microplate Alamar Blue Assay (MABA), M. smegmatis; type: cell-based; details: MABA, resazurin after 48 h
[11] = tested on: Staphylococcus aureus subsp. aureus methicillin-resistant (MRSA) CCM 4750 (ATCC 43300); test: Antibacterial microdilution broth (EUCAST), MRSA; type: cell-based; details: read after 24 h; read-out: MRSA MIC
[12] = tested on: Klebsiella pneumoniae CCM 4415 (ATCC 10031); details: 24 h
[13] = tested on: Candida parapsilosis CCM 8260 (ATCC 22019); test: Antifungal microdilution broth (EUCAST), CP; type: cell-based; details: read after 24 h; read-out: CP MIC
[14] = tested on: Pseudomonas aeruginosa CCM 3955 (ATCC 27853); test: Antibacterial microdilution broth (EUCAST), PA; type: cell-based; details: read after 24 h
[15] = tested on: Escherichia coli CCM 3954 (ATCC 25922); test: Antibacterial microdilution broth (EUCAST), EC; type: cell-based; details: read after 24 h; read-out: EC MIC
[16] = tested on: Candida tropicalis CCM 8264 (ATCC 750); test: Antifungal microdilution broth (EUCAST), CT; type: cell-based; details: read after 24 h; read-out: CT MIC
[17] = tested on: M. aurum DSM 43999 (ATCC 23366); test: Microplate Alamar Blue Assay (MABA), M. aurum; type: cell-based; details: MABA, resazurin after 72 h
[18] = tested on: Acinetobacter baumannii DSM 30007 (ATCC 19606); test: Antibacterial microdilution broth (EUCAST), ACI; type: cell-based; details: read after 24 h; read-out: ACI MIC

In the case of COC(=O)c1nccnc1NC(=O)c1ccccc1 [Compound 1e], the MIC [1] was > 500 µM, the “TI MIC” value [2] was > 500 µM and the MIC [3] was > 500 µM. For the same compound, the MIC [4] was > 500 µM, the MIC [5] was > 500 µM and the MIC [6] was > 500 µM. For the same compound, the MIC [7] was > 500 µM, the MIC [8] was > 500 µM and the “Mtb H37Ra MIC” value [9] was ≥ 500 µg/mL. The “M. smegmatis MIC” value [10] was 125 µg/mL, the MIC [11] was > 500 µM and the “KP MIC” value [12] was > 500 µM. For the same compound, the MIC [13] was > 500 µM, the “PA MIC” value [14] was > 500 µM and the MIC [15] was > 500 µM. The MIC [16] was > 500 µM, the “M. aurum MIC” value [17] was 250 µg/mL and the MIC [18] was > 500 µM.
